Literature values, collected in patent US20230133919A1, “COMPOSITIONS AND RELATED METHODS FOR REDUCING VAPOR EFFECT OF VOLATILE HERBICIDES” (BOARD OF TRUSTEES OF MICHIGAN STATE UNIVERSITY, priority 2020, published 2023).

Conditions: approximate

Compound | vapor pressure
CCCCC(CC)COC(=O)COc1ccc(Cl)cc1Cl (stereo not shown) [2,4-D (2-ethylhexyl ester)] | ~4.8×10^−4 Pa
CCCCOCCOC(=O)COc1ccc(Cl)cc1Cl [2,4-D (butoxyethyl ester)] | ~3.2×10^−4 Pa
CNC.O=C(O)COc1ccc(Cl)cc1Cl [2,4-D (dimethylamine salt)] | ~1.3×10^−5 Pa
CC(C)OC(=O)COc1ccc(Cl)cc1Cl [2,4-D (isopropyl ester)] | ~1.9×10^1 Pa
